Laboratory results from ChEMBL document CHEMBL4118261, “Synthesis, iron binding and antimicrobial properties of hexadentate 3-hydroxypyridinones-terminated dendrimers” (2018).
The source made the active and inactive calls. The calls are words filed in the database; no cut-off is given here.

Assays:
[1] = Metal chelating activity assessed as formation of [Fe3L+H+Na]2+-compound complex at 1:3 compound to ferric ion molar ratio by HR-ESI MS analysis
[2] = tested on: Bacillus subtilis; test: Antibacterial activity against Bacillus subtilis CGMCC 1.0108 assessed as growth inhibition at 100 ug/ml after 24 hrs; format: functional; conditions: for inhibition of growth at 100 µg/mL: CGMCC 1.0108, 24 h, read-out: GI
[3] = Metal chelating activity assessed as formation of [Fe3L+H+2Na]3+-compound complex at 1:3 compound to ferric ion molar ratio by HR-ESI MS analysis
[4] = tested on: Pseudomonas aeruginosa; test: Antibacterial activity against Pseudomonas aeruginosa CGMCC 1.2342 assessed as growth inhibition at 100 ug/ml after 24 hrs; format: functional; conditions: for inhibition of growth at 100 µg/mL: CGMCC 1.2342, 24 h, read-out: GI
[5] = tested on: Escherichia coli; test: Antibacterial activity against Escherichia coli CGMCC 1.0907 assessed as growth inhibition at 100 ug/ml after 24 hrs; format: functional; conditions: for inhibition of growth at 100 µg/mL: CGMCC 1.0907, 24 h, read-out: GI
[6] = tested on: Staphylococcus aureus; test: Antibacterial activity against Staphylococcus aureus CGMCC 1.0089 assessed as growth inhibition at 100 ug/ml after 24 hrs; format: functional; conditions: for inhibition of growth at 100 µg/mL: CGMCC 1.0089, 24 h, read-out: GI
[7] = Iron chelating activity assessed as pFe3+ by measuring fluorescence intensity of the iron-CP691 complex at 2 uM after 1 month incubation in absence of light using CP691 as fluorescent probe by fluorescence assay relative to CP691 alone
[8] = Binding affinity to Fe3+ at 1:1 compound to ferric ion molar ratio by HR-ESI MS analysis
[9] = Binding affinity to Fe3+ at 1:2 compound to ferric ion molar ratio by HR-ESI MS analysis
[10] = Binding affinity to Fe3+ at 1:3 compound to ferric ion molar ratio measured after 4 hrs at pH 8.2 to 8.4 measured at 460 nm by UV/Vis spectrophotometry
[11] = Iron chelating activity assessed as pFe3+ by measuring fluorescence intensity of the iron-CP691 complex at 1 uM after 1 month incubation in absence of light using CP691 as fluorescent probe by fluorescence assay relative to CP691 alone
[12] = Binding affinity to Fe3+ at 1:6 compound to ferric ion molar ratio by HR-ESI MS analysis
[13] = Binding affinity to Fe3+ at 1:6 compound to ferric ion molar ratio measured after 4 hrs at pH 8.2 to 8.4 measured at 460 nm by UV/Vis spectrophotometry
[14] = Binding affinity to Fe3+ at 1:9 compound to ferric ion molar ratio by HR-ESI MS analysis
[15] = Binding affinity to Fe3+ at 1:9 compound to ferric ion molar ratio measured after 4 hrs at pH 8.2 to 8.4 measured at 460 nm by UV/Vis spectrophotometry
[16] = Iron chelating activity assessed as pFe3+ by measuring fluorescence intensity of the iron-CP691 complex at 0.67 uM after 1 month incubation in absence of light using CP691 as fluorescent probe by fluorescence assay relative to CP691 alone

Row | SMILES | Activity [1] | growth inhibition (GI) [2] [%] | Activity [3] | growth inhibition (GI) [4] [%] | growth inhibition (GI) [5] [%] | growth inhibition (GI) [6] [%] | log(activity) [7] | Activity [8] | Activity [9] | inhibition of growth at 100 µg/mL [2] [%] | inhibition of growth at 100 µg/mL [4] [%] | inhibition of growth at 100 µg/mL [5] [%] | inhibition of growth at 100 µg/mL [6] [%] | Activity [10] | log(activity) [11] | Activity [12] | Activity [13] | Activity [14] | Activity [15] | log(activity) [16]
1 | O=C(CCC(CCC(=O)NCc1c(O)c(=O)ccn1CCO)(CCC(=O)NCc1c(O)c(=O)ccn1CCO)NC(=O)CCNC(=O)CN(CC(=O)NCCC(=O)NC(CCC(=O)NCc1c(O)c(=O)ccn1CCO)(CCC(=O)NCc1c(O)c(=O)ccn1CCO)CCC(=O)NCc1c(O)c(=O)ccn1CCO)CC(=O)NCCC(=O)NC(CCC(=O)NCc1c(O)c(=O)ccn1CCO)(CCC(=O)NCc1c(O)c(=O)ccn1CCO)CCC(=O)NCc1c(O)c(=O)ccn1CCO)NCc1c(O)c(=O)ccn1CCO | Active | 95 | Active | 85.3 | 99.7 | 81.7 | 30 | inactive | inactive | – | – | – | – | – | – | – | – | – | – | –
2 | CCCCn1ccc(=O)c(O)c1CNC(=O)CCC(CCC(=O)NCc1c(O)c(=O)ccn1CCCC)(CCC(=O)NCc1c(O)c(=O)ccn1CCCC)NC(=O)CCNC(=O)CN(CC(=O)NCCC(=O)NC(CCC(=O)NCc1c(O)c(=O)ccn1CCCC)(CCC(=O)NCc1c(O)c(=O)ccn1CCCC)CCC(=O)NCc1c(O)c(=O)ccn1CCCC)CC(=O)NCCC(=O)NC(CCC(=O)NCc1c(O)c(=O)ccn1CCCC)(CCC(=O)NCc1c(O)c(=O)ccn1CCCC)CCC(=O)NCc1c(O)c(=O)ccn1CCCC | Active | – | Active | – | – | – | 30.3 | inactive | inactive | 84.8 | 90.4 | 71.7 | 90 | Active | – | – | – | – | – | –
3 | CCCCn1ccc(=O)c(CNC(=O)CCC(CCC(=O)NCc2c(O)c(=O)ccn2CCCC)(CCC(=O)NCc2c(O)c(=O)ccn2CCCC)NC(=O)CCNC(=O)CCC(CCC(=O)NCCC(=O)NC(CCC(=O)NCc2c(O)n(CCCC)ccc2=O)(CCC(=O)NCc2c(O)c(=O)ccn2CCCC)CCC(=O)NCc2c(O)c(=O)ccn2CCCC)(CCC(=O)NCCC(=O)NC(CCC(=O)NCc2c(O)n(CCCC)ccc2=O)(CCC(=O)NCc2c(O)c(=O)ccn2CCCC)CCC(=O)NCc2c(O)c(=O)ccn2CCCC)NC(=O)CCNC(=O)CCNC(=O)c2ccc(C(=O)NCCC(=O)NCCC(=O)NC(CCC(=O)NCCC(=O)NC(CCC(=O)NCc3c(O)n(CCCC)ccc3=O)(CCC(=O)NCc3c(O)c(=O)ccn3CCCC)CCC(=O)NCc3c(O)c(=O)ccn3CCCC)(CCC(=O)NCCC(=O)NC(CCC(=O)NCc3c(O)n(CCCC)ccc3=O)(CCC(=O)NCc3c(O)c(=O)ccn3CCCC)CCC(=O)NCc3c(O)c(=O)ccn3CCCC)CCC(=O)NCCC(=O)NC(CCC(=O)NCc3c(O)n(CCCC)ccc3=O)(CCC(=O)NCc3c(O)c(=O)ccn3CCCC)CCC(=O)NCc3c(O)c(=O)ccn3CCCC)cc2)c1O | – | – | – | – | – | – | – | – | – | 81.4 | 87.9 | 79.8 | 86.9 | – | 30.3 | inactive | Active | – | – | –
4 | Cc1c(O)c(=O)ccn1C [DEFERIPRONE] | – | – | – | – | – | – | – | – | – | 77.4 | 79.5 | 89.1 | 74.8 | – | – | – | – | – | – | –
5 | CCCCn1ccc(=O)c(CNC(=O)CCC(CCC(=O)NCc2c(O)c(=O)ccn2CCCC)(CCC(=O)NCc2c(O)c(=O)ccn2CCCC)NC(=O)CCNC(=O)CCC(CCC(=O)NCCC(=O)NC(CCC(=O)NCc2c(O)n(CCCC)ccc2=O)(CCC(=O)NCc2c(O)c(=O)ccn2CCCC)CCC(=O)NCc2c(O)c(=O)ccn2CCCC)(CCC(=O)NCCC(=O)NC(CCC(=O)NCc2c(O)n(CCCC)ccc2=O)(CCC(=O)NCc2c(O)c(=O)ccn2CCCC)CCC(=O)NCc2c(O)c(=O)ccn2CCCC)NC(=O)CCNC(=O)CCNC(=O)c2cc(C(=O)NCCC(=O)NCCC(=O)NC(CCC(=O)NCCC(=O)NC(CCC(=O)NCc3c(O)n(CCCC)ccc3=O)(CCC(=O)NCc3c(O)c(=O)ccn3CCCC)CCC(=O)NCc3c(O)c(=O)ccn3CCCC)(CCC(=O)NCCC(=O)NC(CCC(=O)NCc3c(O)n(CCCC)ccc3=O)(CCC(=O)NCc3c(O)c(=O)ccn3CCCC)CCC(=O)NCc3c(O)c(=O)ccn3CCCC)CCC(=O)NCCC(=O)NC(CCC(=O)NCc3c(O)n(CCCC)ccc3=O)(CCC(=O)NCc3c(O)c(=O)ccn3CCCC)CCC(=O)NCc3c(O)c(=O)ccn3CCCC)cc(C(=O)NCCC(=O)NCCC(=O)NC(CCC(=O)NCCC(=O)NC(CCC(=O)NCc3c(O)n(CCCC)ccc3=O)(CCC(=O)NCc3c(O)c(=O)ccn3CCCC)CCC(=O)NCc3c(O)c(=O)ccn3CCCC)(CCC(=O)NCCC(=O)NC(CCC(=O)NCc3c(O)n(CCCC)ccc3=O)(CCC(=O)NCc3c(O)c(=O)ccn3CCCC)CCC(=O)NCc3c(O)c(=O)ccn3CCCC)CCC(=O)NCCC(=O)NC(CCC(=O)NCc3c(O)n(CCCC)ccc3=O)(CCC(=O)NCc3c(O)c(=O)ccn3CCCC)CCC(=O)NCc3c(O)c(=O)ccn3CCCC)c2)c1O | – | 64.1 | – | 69.9 | 81.2 | 64.5 | – | – | – | – | – | – | – | – | – | – | – | inactive | Active | 29.8
